Assay results reported in patent US8829024B2, “Combination steroid and glucocorticoid receptor antagonist therapy” (Corcept Therapeutics, Inc., priority 2011, dated 2014).

Legend:
[1] = test system: GR induced transactivation (tyrosine amino transferase expression); assay: Glucocorticosteroid transactivation assay (tyrosine amino transferase expression in primary hepatocytes); type: cell-based; settings: human liver hepatocytes; for inhibition of dexamethasone induced expression of tyrosine amino transferase (antagonism of GR induced transactivation): in presence of 50 nM dexamethasone, FIG. 2b
Source text: GR modulators of the present invention that inhibit GR induced transactivation can be identified by measuring the amount of tyrosine amino transferase expressed in the presence of the GR induced transactivation in a cell model (human liver hepatocytes).
In this example, dexamethasone induces the expression of tyrosine amino transferase by transactivation. Typically, glucocorticosteroids, such as the synthetic dexamethasone, bind the ligand-binding domain of the glucocorticoid receptor (GR) to promote nuclear translocation. In the nucleus, the DNA binding domain directs dimerization on imperfect DNA palindromes known as simple glucocorticoid response elements (GREs) to transcriptionally activate genes including tyrosine amino transferase (TAT).
Primary hepatocytes were distributed in 96-well collagen coated plates and equilibrated in media (without hydrocortisone) for 6 hours. Compounds were tested at 6 concentrations (semi-log dilutions) and prepared in 0.2% DMSO in the presence of 50 nM dexamethasone or media. Hepatocytes in the presence of compound were incubated for 24 hours, washed in PBS and lysed for 30 minutes (30 μl lysis volume). The TAT enzyme assay was initiated by the addition of 170 μl TAT assay buffer (substrate) for 1 hour. The reaction was terminated by the addition of 30 μl 10N KOH and the 96-well plates incubated for a further 30 min […] to allow formation of the aromatic aldehyde product, p-hydroxybenzaldehyde. Absorbance was read at 340 nm on a spectrophotometer.
Reagents: TAT assay buffer: 0.2 M KH2PO4 pH7.4 containing 5.4 mM L-tyrosine, 10.8 mM α-ketoglutaric acid and 0.06 mM Pyridoxal-5-phosphate monohydrate.
Dexamethasone was used to increase the expression of tyrosine amino transferase in human liver hepatocytes.

[2] = test system: GR induced transrepression (LPS activated TNFα release); assay: Glucocorticosteroid transrepression assay (LPS activated TNFα release in peripheral blood mononuclear cells); type: cell-based; settings: human PBMC, 10 ng/ml LPS; for blockade of dexamethasone induced repression of LPS activated TNFα release (antagonism of transrepression): in presence of 50 nM dexamethasone, FIG. 1b
Protocol: Using a cell-based model (human peripheral blood mononuclear cells), dexamethasone was administered to the cells and the release of TNFα was measured. After addition of the GR modulator of the present invention, the release of TNFα was again measured and compared to the amount released in the absence of the GR modulator.
Human peripheral blood mononuclear cells were isolated and distributed in 96-well plates at a density of 2×10^5 cells/well in medium. Compounds were tested at 7 concentrations (semi-log dilutions) and prepared at 5× final assay concentration in 1.5% DMSO. Following a preincubation of 30 minutes with compounds the plates are then incubated in presence of 50 nM dexamethasone or media for 30 minutes. TNFα release was activated by overnight incubation with 10 ng/ml LPS. Human TNFα was measured using chemiluminescence detected on the SECTOR® Imager 6000 (Mesoscale). Dexamethasone was used to inhibit LPS activated TNFα release via the glucocorticoid receptor. […] In some cases, CORT-108297 was added in the absence of dexamethasone to determine if CORT-108297 inhibited LPS activated TNFα release.

Structure (SMILES) | expression of tyrosine amino transferase (increase), compound alone ([1]; all concentrations assayed, no dexamethasone, FIG. 2a) [%] | inhibition of dexamethasone induced expression of tyrosine amino transferase (antagonism of GR induced transactivation) [1] | inhibition of LPS activated TNFα release, compound alone (transrepression agonism), in words ([2]; FIG. 1a) | maximal inhibition of LPS activated TNFα release, compound alone ([2]; at micromolar concentrations, no dexamethasone, FIG. 1a) [%] | blockade of dexamethasone induced repression of LPS activated TNFα release (antagonism of transrepression) [2] | concentration giving maximal increase in TAT expression (transactivation) ([1]; compound alone, FIG. 2a)
CCOC[C@]12Cc3cnn(-c4ccc(F)cc4)c3C=C1CCN(S(=O)(=O)c1ccc(C(F)(F)F)cc1)C2 [CORT-108297] | ≤ 0 | full potent antagonist of GR induced transactivation | weak partial agonist of GR induced transrepression | 48 | only shows partial blockade at higher concentrations | 
C[C@@H]1C[C@H]2[C@@H]3CCC4=CC(=O)C=C[C@]4(C)[C@@]3(F)[C@@H](O)C[C@]2(C)[C@@]1(O)C(=O)CO [dexamethasone, reference compound] |  |  |  |  |  | about 100 nM
CC#C[C@]1(O)CC[C@H]2[C@@H]3CCC4=CC(=O)CCC4=C3[C@@H](c3ccc(N(C)C)cc3)C[C@@]21C [mifepristone, reference compound] |  | inhibit the increased expression of tyrosine amino transferase |  |  | completely blocks this effect | 
